{"source": "paper PMC10112131", "about": "“Pharmacological Elevation of Cellular Dihydrosphingomyelin Provides a Novel Antiviral Strategy against West Nile Virus Infection” (Antimicrobial Agents and Chemotherapy, 2023)", "key": {"in vitro [1]": {"assay": "in vitro", "details": "African green monkey"}, "West Nile virus (WNV) [2]": {"tested_on": "West Nile virus (WNV)", "details": "Vero cells; for WNV infection: Fig 7"}, "West Nile virus (WNV) [3]": {"tested_on": "West Nile virus (WNV)", "assay": "microbe, parasite or virus in culture", "details": "Vero, 24 h, read-out: EC50 WNV"}, "Vero cells [4]": {"tested_on": "Vero cells", "details": "for CC50: read-out: CC50 in uninfected cells, 48-h treatment, Vero cells, ATP, 48 h"}, "Usutu virus (USUV) [5]": {"tested_on": "Usutu virus (USUV)", "assay": "microbe, parasite or virus in culture", "details": "Vero, 24 h, read-out: EC50 USUV"}, "Usutu virus (USUV) [6]": {"tested_on": "Usutu virus (USUV)", "details": "Vero cells"}, "[7]": {"tested_on": "vesicular stomatitis virus (VSV)", "assay": "microbe, parasite or virus in culture", "details": "Vero, 24 h, read-out: EC50 VSV"}, "in vitro [8]": {"assay": "in vitro", "details": "human"}, "Vero cells [9]": {"tested_on": "Vero cells", "details": "low density, 24 h"}, "Zika virus (ZIKV) [10]": {"tested_on": "Zika virus (ZIKV)", "assay": "microbe, parasite or virus in culture", "details": "Vero, 24 h, read-out: EC50 ZIKV"}, "West Nile virus (WNV) [11]": {"tested_on": "West Nile virus (WNV)", "details": "SH-SY5Y cells"}, "Zika virus (ZIKV) [12]": {"tested_on": "Zika virus (ZIKV)", "details": "Vero cells"}, "[13]": {"molecular_target": "T1, ceramide desaturase (Des1) (Homo sapiens, UniProt O15121)", "T1 sequence (O15121 1-323)": "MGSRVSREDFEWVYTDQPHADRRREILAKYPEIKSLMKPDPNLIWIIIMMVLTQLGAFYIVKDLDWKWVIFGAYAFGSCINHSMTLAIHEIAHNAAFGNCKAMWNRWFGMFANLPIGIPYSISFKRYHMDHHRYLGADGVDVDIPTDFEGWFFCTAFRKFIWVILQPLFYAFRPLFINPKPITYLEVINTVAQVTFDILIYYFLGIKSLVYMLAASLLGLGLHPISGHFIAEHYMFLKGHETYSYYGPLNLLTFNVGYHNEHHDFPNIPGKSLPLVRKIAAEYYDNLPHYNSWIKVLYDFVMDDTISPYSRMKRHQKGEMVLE"}, "coxsackievirus B5 (CVB5)": {"tested_on": "coxsackievirus B5 (CVB5)", "assay": "microbe, parasite or virus in culture", "type": "cell-based, CVB5 Faulkner", "details": "for EC50: Enterovirus B, Vero, 24 h; for Antiviral efficacy against CVB5: Vero cells"}, "[14]": {"tested_on": "vesicular stomatitis virus (VSV)"}, "WNV RVPs": {"tested_on": "WNV RVPs", "assay": "Entry of WNV reporter virus particles (RVPs) into Vero cells, flow cytometry", "type": "cell-based, West Nile virus", "details": "Vero pretreated 24 h, read 48 h p.i."}, "dengue virus (DENV-2) [15]": {"tested_on": "dengue virus (DENV-2)", "details": "Vero cells"}, "dengue virus (DENV-2) [16]": {"tested_on": "dengue virus (DENV-2)", "assay": "microbe, parasite or virus in culture", "details": "DENV2, Vero, 48 h, read-out: EC50 DENV-2"}, "Vero cells [17]": {"tested_on": "Vero cells", "assay": "Lipidomics of treated Vero cells by mass spectrometry", "type": "cell-based", "details": "10 μM, 24 h; for Level of dihydrosphingomyelins (dhSMs): relative to control; for dhSM/SM ratio: vs vehicle, almost all dhSMs analyzed"}, "West Nile virus (WNV) [18]": {"tested_on": "West Nile virus (WNV)", "assay": "Specific infectivity of WNV progeny released from treated Vero cells", "type": "cell-based", "details": "vs vehicle"}, "West Nile virus (WNV) [19]": {"tested_on": "West Nile virus (WNV)", "assay": "microbe, parasite or virus in culture", "details": "SH-SY5Y, 24 h, read-out: EC50 WNV"}}, "note": "Where “and” joins values, the source holds several entries; their conditions need not be identical. Equal values may be shown once. Entries after “also recorded” stand apart in the source; their conditions may differ. Read-outs that look alike come from different tables or passages of the source.", "data": [{"molecule": "O=C(O)c1cc(O)c(O)c(O)c1", "note": "[Gallic acid, 3,4,5-trihydroxybenzoic acid, reference compound]", "values": [{"measurement": "CC50", "setting": "in vitro [1]", "result": "> 100", "unit": "µM"}, {"measurement": "WNV yield", "setting": "West Nile virus (WNV) [2]; Fig 1B", "result": "slight reduction in the WNV yield"}, {"measurement": "EC50", "setting": "West Nile virus (WNV) [3]", "result": "~100", "unit": "µM"}]}, {"molecule": "O=C(OCCCCCCCCOC(=O)c1cc(O)c(O)c(O)c1)c1cc(O)c(O)c(O)c1", "note": "[AL-072]", "values": [{"measurement": "CC50", "setting": "in vitro [1]", "result": 23.2, "unit": "µM"}, {"measurement": "SI (CC50/EC50) WNV", "setting": "West Nile virus (WNV) [2]", "result": 5.9}, {"measurement": "EC50", "setting": "West Nile virus (WNV) [3]", "result": 3.9, "unit": "µM"}]}, {"molecule": "CCCCCCCCCCCCCCC[C@@H](O)[C@H](COP(=O)([O-])OCC[N+](C)(C)C)NC(=O)CCCCCCCCCCC", "note": "[dhSM, N-Lauroyl-D-erythro-sphinganylphosphorylcholine, reference compound]", "values": [{"measurement": "WNV infection", "setting": "West Nile virus (WNV) [2]", "result": "significantly reduced WNV infection in a dose-dependent manner"}, {"measurement": "Cell viability estimated by ATP measurements", "setting": "Vero cells [4]", "result": "without reducing cell viability"}]}, {"molecule": "CCCCCCCCCCCCCC1=C([C@H](O)[C@@H](CO)NC(=O)CCCCCCC)C1", "note": "[GT-11, N-[(1R,2S)-2-hydroxy-1-hydroxymethyl-2-(2-tridecyl-1-cyclopropenyl)ethyl]octanamide, reference compound]", "values": [{"measurement": "WNV infection", "setting": "West Nile virus (WNV) [2]", "result": "inhibited WNV infection in a dose-dependent manner"}]}, {"molecule": "O=C(NCCCCCCCCCCCCNC(=O)c1ccc(O)c(O)c1O)c1ccc(O)c(O)c1O", "note": "[AL-274]", "values": [{"measurement": "CC50", "setting": "in vitro [1]", "result": "> 100", "unit": "µM"}, {"measurement": "EC50", "setting": "Usutu virus (USUV) [5]", "result": 1.3, "unit": "µM"}, {"measurement": "SI (CC50/EC50) USUV", "setting": "Usutu virus (USUV) [6]", "result": ">76.9"}, {"measurement": "EC50", "setting": "[7]", "result": 43, "unit": "µM"}, {"measurement": "CC50", "setting": "in vitro [8]", "result": 38.9, "unit": "µM"}, {"measurement": "Effect on proliferation of Vero cells", "setting": "Vero cells [9]", "result": "only cytostatic effects on Vero cells at high concentrations"}, {"measurement": "EC50", "setting": "Zika virus (ZIKV) [10]", "result": 2.1, "unit": "µM"}, {"measurement": "SI (CC50/EC50) WNV", "setting": "West Nile virus (WNV) [11]", "result": 20.5}, {"measurement": "SI (CC50/EC50) WNV", "setting": "West Nile virus (WNV) [2]", "result": ">416"}, {"measurement": "SI (CC50/EC50) ZIKV", "setting": "Zika virus (ZIKV) [12]", "result": ">47.6"}, {"measurement": "IC50", "setting": "[13]", "result": 7.8, "unit": "µM"}, {"measurement": "Mean virus yield CVB5", "setting": "coxsackievirus B5 (CVB5)", "result": "9.25E+07 PFU/mL and 7.64E+07 PFU/mL and 8.20E+07 PFU/mL and 8.13E+07 PFU/mL and 8.84E+07 PFU/mL and 6.70E+07 PFU/mL and 7.30E+07 PFU/mL and 7.92E+07 PFU/mL"}, {"measurement": "EC50", "setting": "coxsackievirus B5 (CVB5)", "result": "> 100", "unit": "µM"}, {"measurement": "Antiviral efficacy against CVB5", "setting": "coxsackievirus B5 (CVB5)", "result": "undetectable; also recorded: no antiviral activity was observed"}, {"measurement": "EC50", "setting": "West Nile virus (WNV) [3]", "result": 0.24, "unit": "µM"}, {"measurement": "SI (CC50/EC50) VSV", "setting": "[14]", "result": ">2.3"}, {"measurement": "Number of cells infected with RVPs", "setting": "WNV RVPs", "result": "significantly reduced the number of infected cells"}, {"measurement": "SI (CC50/EC50) DENV-2", "setting": "dengue virus (DENV-2) [15]", "result": ">10.8"}, {"measurement": "EC50", "setting": "dengue virus (DENV-2) [16]", "result": 9.2, "unit": "µM"}, {"measurement": "Level of dihydrosphingomyelins (dhSMs)", "setting": "Vero cells [17]", "result": "significant increase"}, {"measurement": "dhSM/SM ratio", "setting": "Vero cells [17]", "result": "significantly increased"}, {"measurement": "Specific infectivity of released WNV particles", "setting": "West Nile virus (WNV) [18]", "result": "significant reduction in their infectivity"}, {"measurement": "CC50", "setting": "Vero cells [4]", "result": "> 100", "unit": "µM"}, {"measurement": "EC50", "setting": "West Nile virus (WNV) [19]", "result": 1.9, "unit": "µM"}]}, {"molecule": "CCCCCCCCOC(=O)c1cc(O)c(O)c(O)c1", "note": "[AL-071]", "values": [{"measurement": "CC50", "setting": "in vitro [1]", "result": 9.2, "unit": "µM"}, {"measurement": "SI (CC50/EC50) WNV", "setting": "West Nile virus (WNV) [2]", "result": 6.6}, {"measurement": "EC50", "setting": "West Nile virus (WNV) [3]", "result": 1.4, "unit": "µM"}]}, {"molecule": "O=C(NCCCCCCCCCCCCNC(=O)c1cc(O)c(O)c(O)c1)c1cc(O)c(O)c(O)c1", "note": "[AL-088, N,N′-(dodecane-1,12-diyl)bis(3,4,5-trihydroxybenzamide)]", "values": [{"measurement": "CC50", "setting": "in vitro [1]", "result": "> 100", "unit": "µM"}, {"measurement": "EC50", "setting": "Usutu virus (USUV) [5]", "result": 0.8, "unit": "µM"}, {"measurement": "SI (CC50/EC50) USUV", "setting": "Usutu virus (USUV) [6]", "result": ">125"}, {"measurement": "EC50", "setting": "[7]", "result": 25.3, "unit": "µM"}, {"measurement": "CC50", "setting": "in vitro [8]", "result": 87.6, "unit": "µM"}, {"measurement": "Effect on proliferation of Vero cells", "setting": "Vero cells [9]", "result": "only cytostatic effects on Vero cells at high concentrations"}, {"measurement": "EC50", "setting": "Zika virus (ZIKV) [10]", "result": 6.7, "unit": "µM"}, {"measurement": "SI (CC50/EC50) WNV", "setting": "West Nile virus (WNV) [11]", "result": 39.8}, {"measurement": "SI (CC50/EC50) WNV", "setting": "West Nile virus (WNV) [2]", "result": ">45.0"}, {"measurement": "SI (CC50/EC50) ZIKV", "setting": "Zika virus (ZIKV) [12]", "result": ">14.9"}, {"measurement": "IC50", "setting": "[13]", "result": 1, "unit": "µM"}, {"measurement": "Mean virus yield CVB5", "setting": "coxsackievirus B5 (CVB5)", "result": "8.58E+07 PFU/mL and 7.12E+07 PFU/mL and 6.85E+07 PFU/mL and 8.01E+07 PFU/mL and 6.45E+07 PFU/mL and 7.26E+07 PFU/mL and 7.43E+07 PFU/mL and 8.33E+07 PFU/mL"}, {"measurement": "EC50", "setting": "coxsackievirus B5 (CVB5)", "result": "> 100", "unit": "µM"}, {"measurement": "Antiviral efficacy against CVB5", "setting": "coxsackievirus B5 (CVB5)", "result": "undetectable; also recorded: no antiviral activity was observed"}, {"measurement": "EC50", "setting": "West Nile virus (WNV) [3]", "result": 2.2, "unit": "µM"}, {"measurement": "SI (CC50/EC50) VSV", "setting": "[14]", "result": ">4.0"}, {"measurement": "Number of cells infected with RVPs", "setting": "WNV RVPs", "result": "significantly reduced the number of infected cells"}, {"measurement": "SI (CC50/EC50) DENV-2", "setting": "dengue virus (DENV-2) [15]", "result": ">13.9"}, {"measurement": "EC50", "setting": "dengue virus (DENV-2) [16]", "result": 7.2, "unit": "µM"}, {"measurement": "Level of dihydroceramides (dhCers)", "setting": "Vero cells [17]", "result": "Significantly elevated levels"}, {"measurement": "Level of sphingomyelins (SMs)", "setting": "Vero cells [17]", "result": "slight reductions"}, {"measurement": "Level of dihydrosphingomyelins (dhSMs)", "setting": "Vero cells [17]", "result": "significant increase"}, {"measurement": "dhSM/SM ratio", "setting": "Vero cells [17]", "result": "significantly increased"}, {"measurement": "Specific infectivity of released WNV particles", "setting": "West Nile virus (WNV) [18]", "result": "significant reduction in their infectivity"}, {"measurement": "CC50", "setting": "Vero cells [4]", "result": "> 100", "unit": "µM"}, {"measurement": "EC50", "setting": "West Nile virus (WNV) [19]", "result": 2.2, "unit": "µM"}]}, {"molecule": "O=C(OCCCCCCCCCCCCOC(=O)c1cc(O)c(O)c(O)c1)c1cc(O)c(O)c(O)c1", "note": "[AL-085]", "values": [{"measurement": "CC50", "setting": "in vitro [1]", "result": 5, "unit": "µM"}, {"measurement": "SI (CC50/EC50) WNV", "setting": "West Nile virus (WNV) [2]", "result": 25.0}, {"measurement": "EC50", "setting": "West Nile virus (WNV) [3]", "result": 0.2, "unit": "µM"}]}]}
